# pIC50: −log10 of the molar value. Activity calls are given as the source filed them. No cut-off for these calls is given here.
# Columns and labels:
# MCF7 [1] = experiment: Cell cycle arrest in human MCF7 cells as assessed as accumulation at G1 phase at 1 uM after 24 hrs by propidium iodide staining-based flow cytometric analysis relative to control; format: functional
# MCF7 [2] = experiment: Antiadhesive activity against human MCF7 cells at 5 uM after 2 to 24 hrs by crystal-violet staining-based microscopic analysis; format: functional, cell-based
# WI-38 [3] = experiment: Cell cycle arrest in human WI38 cells as assessed as accumulation at S phase at 1 uM after 48 hrs by propidium iodide staining-based flow cytometric analysis relative to control; details: wi-38, 48 h
# MCF7 [4] = experiment: Cell cycle arrest in human MCF7 cells as assessed as accumulation at sub-G1 phase at 1 uM after 24 hrs by propidium iodide staining-based flow cytometric analysis relative to control; format: functional
# SW-620 [5] = experiment: Antiproliferative activity against human SW620 cells after 72 hrs by MTT assay; format: functional, cell-based
# WI-38 [6] = experiment: Cell cycle arrest in human WI38 cells as assessed as accumulation at G1 phase at 1 uM after 48 hrs by propidium iodide staining-based flow cytometric analysis relative to control; details: wi-38, 48 h
# MCF7 [7] = experiment: Cell cycle arrest in human MCF7 cells as assessed as accumulation at G2/M phase at 1 uM after 48 hrs by propidium iodide staining-based flow cytometric analysis relative to control; format: functional
# K562 [8] = experiment: Cell cycle arrest in human K562 cells as assessed as accumulation at sub-G1 phase at 1 uM after 24 hrs by propidium iodide staining-based flow cytometric analysis relative to control; format: functional
# MCF7 [9] = experiment: Cell cycle arrest in human MCF7 cells as assessed as accumulation at G1 phase at 0.1 uM after 48 hrs by propidium iodide staining-based flow cytometric analysis relative to control; format: functional
# SW-620 [10] = experiment: Cell cycle arrest in human SW620 cells as assessed as accumulation at G2/M phase at 0.1 uM after 24 hrs by propidium iodide staining-based flow cytometric analysis relative to control; format: functional
# K562 [11] = experiment: Cell cycle arrest in human K562 cells as assessed as accumulation at S phase at 0.5 uM after 24 hrs by propidium iodide staining-based flow cytometric analysis relative to control; format: functional
# K562 [12] = experiment: Cell cycle arrest in human K562 cells as assessed as accumulation at sub-G1 phase at 0.5 uM after 48 hrs by propidium iodide staining-based flow cytometric analysis relative to control; format: functional
# SW-620 [13] = experiment: Cell cycle arrest in human SW620 cells as assessed as accumulation at S phase at 0.1 uM after 48 hrs by propidium iodide staining-based flow cytometric analysis relative to control; format: functional
# HepG2 = experiment: Antiproliferative activity against human HepG2 cells after 72 hrs by MTT assay; format: functional, cell-based
# K562 [14] = experiment: Cell cycle arrest in human K562 cells as assessed as accumulation at sub-G1 phase at 0.1 uM after 24 hrs by propidium iodide staining-based flow cytometric analysis relative to control; format: functional
# MCF7 [15] = experiment: Cell cycle arrest in human MCF7 cells as assessed as accumulation at G2/M phase at 1 uM after 24 hrs by propidium iodide staining-based flow cytometric analysis relative to control; format: functional
# WI-38 [16] = experiment: Cell cycle arrest in human WI38 cells as assessed as accumulation at G2/M phase at 0.1 uM after 48 hrs by propidium iodide staining-based flow cytometric analysis relative to control; details: wi-38, 48 h
# WI-38 [17] = experiment: Cell cycle arrest in human WI38 cells as assessed as accumulation at G1 phase at 0.1 uM after 48 hrs by propidium iodide staining-based flow cytometric analysis relative to control; details: wi-38, 48 h
# WI-38 [18] = experiment: Cell cycle arrest in human WI38 cells as assessed as accumulation at sub-G1 phase at 1 uM after 24 hrs by propidium iodide staining-based flow cytometric analysis relative to control; details: wi-38, 24 h
# K562 [19] = experiment: Cell cycle arrest in human K562 cells as assessed as accumulation at G2/M phase at 0.5 uM after 48 hrs by propidium iodide staining-based flow cytometric analysis relative to control; format: functional
# SW-620 [20] = experiment: Cell cycle arrest in human SW620 cells as assessed as accumulation at G1 phase at 1 uM after 24 hrs by propidium iodide staining-based flow cytometric analysis relative to control; format: functional
# HeLa = experiment: Antiproliferative activity against human HeLa cells after 72 hrs by MTT assay; format: functional, cell-based
# K562 [21] = experiment: Cell cycle arrest in human K562 cells as assessed as accumulation at S phase at 1 uM after 24 hrs by propidium iodide staining-based flow cytometric analysis relative to control; format: functional
# K562 [22] = experiment: Cell cycle arrest in human K562 cells as assessed as accumulation at G1 phase at 0.1 uM after 24 hrs by propidium iodide staining-based flow cytometric analysis relative to control; format: functional
# K562 [23] = experiment: Cell cycle arrest in human K562 cells as assessed as accumulation at G1 phase at 0.5 uM after 48 hrs by propidium iodide staining-based flow cytometric analysis relative to control; format: functional
# K562 [24] = experiment: Cell cycle arrest in human K562 cells as assessed as accumulation at sub-G1 phase at 0.1 uM after 48 hrs by propidium iodide staining-based flow cytometric analysis relative to control; format: functional
# WI-38 [25] = experiment: Cell cycle arrest in human WI38 cells as assessed as accumulation at sub-G1 phase at 0.1 uM after 48 hrs by propidium iodide staining-based flow cytometric analysis relative to control; details: wi-38, 48 h
# K562 [26] = experiment: Cell cycle arrest in human K562 cells as assessed as accumulation at G2/M phase at 0.1 uM after 24 hrs by propidium iodide staining-based flow cytometric analysis relative to control; format: functional
# SW-620 [27] = experiment: Cell cycle arrest in human SW620 cells as assessed as accumulation at sub-G1 phase at 0.1 uM after 24 hrs by propidium iodide staining-based flow cytometric analysis relative to control; format: functional
# MCF7 [28] = experiment: Cell cycle arrest in human MCF7 cells as assessed as accumulation at sub-G1 phase at 1 uM after 48 hrs by propidium iodide staining-based flow cytometric analysis relative to control; format: functional
# K562 [29] = experiment: Cell cycle arrest in human K562 cells as assessed as accumulation at G1 phase at 1 uM after 48 hrs by propidium iodide staining-based flow cytometric analysis relative to control; format: functional
# K562 [30] = experiment: Cell cycle arrest in human K562 cells as assessed as accumulation at S phase at 0.1 uM after 24 hrs by propidium iodide staining-based flow cytometric analysis relative to control; format: functional
# WI-38 [31] = experiment: Antiproliferative activity against human WI38 cells after 72 hrs by MTT assay; format: cell-based
# K562 [32] = experiment: Cell cycle arrest in human K562 cells as assessed as accumulation at G2/M phase at 0.1 uM after 48 hrs by propidium iodide staining-based flow cytometric analysis relative to control; format: functional
# MCR = experiment: Antiproliferative activity against human MCR cells after 72 hrs by MTT assay; format: cell-based; details: human, mcr
# SW-620 [33] = experiment: Cell cycle arrest in human SW620 cells as assessed as accumulation at G2/M phase at 1 uM after 48 hrs by propidium iodide staining-based flow cytometric analysis relative to control; format: functional
# K562 [34] = experiment: Cell cycle arrest in human K562 cells as assessed as accumulation at G1 phase at 0.1 uM after 48 hrs by propidium iodide staining-based flow cytometric analysis relative to control; format: functional
# K562 [35] = experiment: Cell cycle arrest in human K562 cells as assessed as accumulation at G1 phase at 0.5 uM after 24 hrs by propidium iodide staining-based flow cytometric analysis relative to control; format: functional
structure (smiles),measurement,setting,value
COCn1c(CC(COCc2ccccc2)COCc2ccccc2)c(C)c(=O)n(COC)c1=O,Activity,MCF7 [1],14.8%
same,Activity,MCF7 [2],Active
same,Activity,WI-38 [3],3.4%
same,Activity,MCF7 [4],67.1%
same,Activity,SW-620 [5],Dose-dependent effect
same,pIC50,"SW-620 [5]; SW-620, 72 h",6.30
same,Activity,WI-38 [6],45.5%
same,Activity,MCF7 [7],3.8%
same,Activity,K562 [8],3.1%
same,Activity,MCF7 [9],23.8%
same,Activity,SW-620 [10],21.7%
same,Activity,K562 [11],5.6%
same,Activity,K562 [12],15%
same,Activity,SW-620 [13],25.6%
same,Activity,HepG2,Dose-dependent effect
same,Activity,K562 [14],2.2%
same,Activity,MCF7 [15],8.7%
same,Activity,WI-38 [16],5.7%
same,Activity,WI-38 [17],48.5%
same,Activity,WI-38 [18],21%
same,Activity,K562 [19],3.9%
same,Activity,SW-620 [20],55.9%
same,Activity,HeLa,Dose-dependent effect
same,pIC50,HeLa,6.52
same,Activity,K562 [21],26.6%
same,Activity,K562 [22],48.4%
same,Activity,K562 [23],64.4%
same,Activity,K562 [24],3%
same,Activity,WI-38 [25],38.5%
same,Activity,K562 [26],22.2%
same,Activity,SW-620 [27],4.3%
same,Activity,MCF7 [28],78.9%
same,Activity,K562 [29],51.8%
same,Activity,K562 [30],28.6%
same,pIC50,"WI-38 [31]; Homo sapiens, WI-38, 72 h",6.52
same,Activity,"WI-38 [31]; human, wi-38, 72 h",Dose-dependent effect
same,Activity,K562 [32],23.5%
same,Activity,MCR,Dose-dependent effect
same,Activity,SW-620 [33],15.8%
same,Activity,K562 [34],49.8%
same,Activity,K562 [35],85.8%

# From ChEMBL document CHEMBL3286303, “Synthesis and in vitro antiproliferative evaluation of novel N-alkylated 6-isobutyl- and propyl pyrimidine derivatives” (Bioorg Med Chem Lett, 2014)
